Experimental data as given in ChEMBL document CHEMBL4321785, “Challenges and Opportunities for Therapeutics Targeting the Voltage-Gated Sodium Channel Isoform NaV1.7” (J Med Chem, 2019).

Key:
[1] = biological target: Sodium channel protein type 1 subunit alpha (Homo sapiens, UniProt P35498); assay: Inhibition of human Nav1.1 expressed in HEK293 cells by electrophysiology assay; format: cell-based
[2] = biological target: Sodium channel protein type 2 subunit alpha (Homo sapiens, UniProt Q99250); assay: Inhibition of human Nav1.2 expressed in HEK293 cells by electrophysiology assay; format: cell-based
Sequence of Sodium channel protein type 2 subunit alpha (Q99250 whole entry): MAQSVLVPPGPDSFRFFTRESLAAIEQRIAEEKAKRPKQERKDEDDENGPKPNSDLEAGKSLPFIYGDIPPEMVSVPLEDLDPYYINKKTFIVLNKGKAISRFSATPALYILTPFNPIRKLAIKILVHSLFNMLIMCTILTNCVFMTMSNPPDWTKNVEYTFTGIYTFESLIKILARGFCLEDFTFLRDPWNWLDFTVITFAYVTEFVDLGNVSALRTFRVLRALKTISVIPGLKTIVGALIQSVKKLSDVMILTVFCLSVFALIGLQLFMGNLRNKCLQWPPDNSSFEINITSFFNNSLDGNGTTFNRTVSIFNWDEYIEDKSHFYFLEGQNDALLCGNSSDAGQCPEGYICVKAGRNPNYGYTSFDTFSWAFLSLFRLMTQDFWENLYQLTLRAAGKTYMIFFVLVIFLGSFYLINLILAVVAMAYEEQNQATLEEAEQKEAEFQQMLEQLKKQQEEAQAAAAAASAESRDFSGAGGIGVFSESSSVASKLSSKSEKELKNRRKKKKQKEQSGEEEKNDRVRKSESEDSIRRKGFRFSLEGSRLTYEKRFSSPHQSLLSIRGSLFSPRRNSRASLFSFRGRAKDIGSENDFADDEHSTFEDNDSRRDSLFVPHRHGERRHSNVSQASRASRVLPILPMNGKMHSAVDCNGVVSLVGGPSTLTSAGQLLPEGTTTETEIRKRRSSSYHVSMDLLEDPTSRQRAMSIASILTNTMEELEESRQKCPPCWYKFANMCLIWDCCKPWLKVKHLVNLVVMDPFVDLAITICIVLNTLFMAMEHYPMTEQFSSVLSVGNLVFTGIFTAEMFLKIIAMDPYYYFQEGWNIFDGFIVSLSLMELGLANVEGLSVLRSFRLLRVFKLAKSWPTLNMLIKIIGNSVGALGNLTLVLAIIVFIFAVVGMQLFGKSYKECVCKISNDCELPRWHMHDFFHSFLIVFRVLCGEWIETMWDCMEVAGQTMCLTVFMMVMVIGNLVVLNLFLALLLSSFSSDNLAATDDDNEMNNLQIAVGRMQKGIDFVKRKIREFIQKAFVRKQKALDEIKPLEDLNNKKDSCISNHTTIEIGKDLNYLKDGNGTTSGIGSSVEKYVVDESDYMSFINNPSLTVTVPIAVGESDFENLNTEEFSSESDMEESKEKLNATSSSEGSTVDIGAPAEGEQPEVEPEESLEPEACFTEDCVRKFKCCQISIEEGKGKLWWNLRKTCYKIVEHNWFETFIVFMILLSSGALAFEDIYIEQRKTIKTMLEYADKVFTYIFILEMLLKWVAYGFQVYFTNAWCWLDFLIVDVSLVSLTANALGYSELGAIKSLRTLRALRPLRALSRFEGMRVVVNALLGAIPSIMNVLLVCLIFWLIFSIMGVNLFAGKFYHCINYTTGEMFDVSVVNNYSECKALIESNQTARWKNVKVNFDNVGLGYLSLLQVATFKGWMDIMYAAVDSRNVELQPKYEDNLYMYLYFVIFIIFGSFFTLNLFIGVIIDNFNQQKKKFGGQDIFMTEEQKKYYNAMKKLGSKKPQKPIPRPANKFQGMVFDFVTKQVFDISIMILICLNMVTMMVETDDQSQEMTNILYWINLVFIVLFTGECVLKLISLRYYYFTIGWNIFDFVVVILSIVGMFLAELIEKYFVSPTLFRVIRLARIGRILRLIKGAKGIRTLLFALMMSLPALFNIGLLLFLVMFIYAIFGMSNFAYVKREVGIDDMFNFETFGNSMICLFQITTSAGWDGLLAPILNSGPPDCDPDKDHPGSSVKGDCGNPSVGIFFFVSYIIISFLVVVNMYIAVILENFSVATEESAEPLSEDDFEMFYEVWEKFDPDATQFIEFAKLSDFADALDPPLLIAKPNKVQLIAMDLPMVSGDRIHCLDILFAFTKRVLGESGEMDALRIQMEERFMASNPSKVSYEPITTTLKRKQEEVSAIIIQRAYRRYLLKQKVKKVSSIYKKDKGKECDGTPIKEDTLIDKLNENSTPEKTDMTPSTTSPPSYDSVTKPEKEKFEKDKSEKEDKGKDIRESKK

[3] = biological target: Sodium channel protein type 3 subunit alpha (Homo sapiens, UniProt Q9NY46); assay: Inhibition of human Nav1.3 expressed in HEK293 cells by electrophysiology assay; format: cell-based
[4] = biological target: Sodium channel protein type 4 subunit alpha (Homo sapiens, UniProt P35499); assay: Inhibition of human Nav1.4 expressed in HEK293 cells by electrophysiology assay; format: cell-based
[5] = biological target: Sodium channel protein type 5 subunit alpha (Homo sapiens, UniProt Q14524); assay: Inhibition of human Nav1.5 expressed in HEK293 cells by electrophysiology assay; format: cell-based
[6] = biological target: Sodium channel protein type 8 subunit alpha (Homo sapiens, UniProt Q9UQD0); assay: Inhibition of human Nav1.6 expressed in HEK293 cells by electrophysiology assay; format: cell-based
Sequence of Sodium channel protein type 8 subunit alpha (Q9UQD0 whole entry): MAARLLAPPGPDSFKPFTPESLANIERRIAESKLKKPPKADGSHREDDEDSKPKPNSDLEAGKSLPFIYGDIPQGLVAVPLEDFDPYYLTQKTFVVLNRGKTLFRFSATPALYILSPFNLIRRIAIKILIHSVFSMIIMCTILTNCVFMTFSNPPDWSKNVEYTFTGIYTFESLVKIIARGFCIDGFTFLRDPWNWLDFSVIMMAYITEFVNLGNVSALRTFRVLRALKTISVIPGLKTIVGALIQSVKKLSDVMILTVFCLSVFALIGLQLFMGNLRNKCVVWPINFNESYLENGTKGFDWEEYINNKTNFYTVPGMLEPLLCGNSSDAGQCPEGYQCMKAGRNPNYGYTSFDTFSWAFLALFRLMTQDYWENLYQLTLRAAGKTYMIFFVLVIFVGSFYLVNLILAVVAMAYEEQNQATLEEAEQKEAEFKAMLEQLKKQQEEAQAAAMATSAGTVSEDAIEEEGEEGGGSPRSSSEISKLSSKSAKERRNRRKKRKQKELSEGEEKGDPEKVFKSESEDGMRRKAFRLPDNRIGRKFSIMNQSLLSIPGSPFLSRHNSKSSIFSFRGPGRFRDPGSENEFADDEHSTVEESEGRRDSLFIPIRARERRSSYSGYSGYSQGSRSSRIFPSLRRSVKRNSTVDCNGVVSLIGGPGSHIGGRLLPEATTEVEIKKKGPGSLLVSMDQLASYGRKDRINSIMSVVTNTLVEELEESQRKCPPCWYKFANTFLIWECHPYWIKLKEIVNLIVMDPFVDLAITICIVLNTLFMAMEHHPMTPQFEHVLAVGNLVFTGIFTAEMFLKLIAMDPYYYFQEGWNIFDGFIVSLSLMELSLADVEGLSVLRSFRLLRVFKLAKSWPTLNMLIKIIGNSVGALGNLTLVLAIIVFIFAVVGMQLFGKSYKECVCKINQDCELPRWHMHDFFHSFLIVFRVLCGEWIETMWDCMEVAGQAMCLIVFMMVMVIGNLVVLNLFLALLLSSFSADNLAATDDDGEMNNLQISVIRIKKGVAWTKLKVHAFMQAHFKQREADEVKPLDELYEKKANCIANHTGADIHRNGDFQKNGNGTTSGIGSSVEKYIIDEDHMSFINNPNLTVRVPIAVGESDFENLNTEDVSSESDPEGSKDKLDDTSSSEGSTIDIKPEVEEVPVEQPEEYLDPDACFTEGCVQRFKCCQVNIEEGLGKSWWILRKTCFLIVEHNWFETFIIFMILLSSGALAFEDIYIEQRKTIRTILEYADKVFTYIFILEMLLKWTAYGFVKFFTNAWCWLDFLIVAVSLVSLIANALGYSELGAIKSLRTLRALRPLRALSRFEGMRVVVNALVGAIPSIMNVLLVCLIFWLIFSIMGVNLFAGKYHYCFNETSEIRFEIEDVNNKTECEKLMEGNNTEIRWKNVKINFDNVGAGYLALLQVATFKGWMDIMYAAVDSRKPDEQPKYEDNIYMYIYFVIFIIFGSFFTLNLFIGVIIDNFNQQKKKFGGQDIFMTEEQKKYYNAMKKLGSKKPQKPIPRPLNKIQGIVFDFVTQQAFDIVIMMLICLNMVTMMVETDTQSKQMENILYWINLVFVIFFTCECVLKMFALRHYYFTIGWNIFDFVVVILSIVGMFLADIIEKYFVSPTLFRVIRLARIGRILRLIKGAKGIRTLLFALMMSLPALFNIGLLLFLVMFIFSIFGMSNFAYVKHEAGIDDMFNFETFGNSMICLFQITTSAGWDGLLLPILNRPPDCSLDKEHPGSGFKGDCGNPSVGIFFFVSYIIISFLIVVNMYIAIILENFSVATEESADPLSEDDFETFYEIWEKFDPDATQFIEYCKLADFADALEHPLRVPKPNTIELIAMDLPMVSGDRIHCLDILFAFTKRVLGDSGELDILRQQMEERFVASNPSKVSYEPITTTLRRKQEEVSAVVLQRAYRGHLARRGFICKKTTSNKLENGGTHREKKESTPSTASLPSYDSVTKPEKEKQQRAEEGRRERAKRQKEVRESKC

Rattus norvegicus [7] = assay: Analgesic activity in iv dosed rat model of CFA-induced pain; format: functional
Rattus norvegicus [8] = assay: Analgesic activity in it dosed rat model of CFA-induced pain; format: functional
Rattus norvegicus [9] = assay: Analgesic activity in it dosed rat model of formalin-induced pain; format: functional
Rattus norvegicus [10] = assay: Analgesic activity in it dosed rat model of CFA-induced pain by Hargreaves test; format: functional
[11] = biological target: Sodium channel protein type 9 subunit alpha (Homo sapiens, UniProt Q15858); assay: Inhibition of human Nav1.7 expressed in HEK293 cells by electrophysiology assay; format: cell-based
Homo sapiens [12] = organism: Homo sapiens; assay: Selectivity index, ratio of IC50 for inhibition of human Nav1.1 expressed in HEK293 cells by electrophysiology assay to IC50 for inhibition of human Nav1.7 expressed in HEK293 cells by electrophysiology assay; format: cell-based
Homo sapiens [13] = organism: Homo sapiens; assay: Selectivity index, ratio of IC50 for inhibition of human Nav1.2 expressed in HEK293 cells by electrophysiology assay to IC50 for inhibition of human Nav1.7 expressed in HEK293 cells by electrophysiology assay; format: cell-based
Homo sapiens [14] = organism: Homo sapiens; assay: Selectivity index, ratio of IC50 for inhibition of human Nav1.4 expressed in HEK293 cells by electrophysiology assay to IC50 for inhibition of human Nav1.7 expressed in HEK293 cells by electrophysiology assay; format: cell-based
Homo sapiens [15] = organism: Homo sapiens; assay: Selectivity index, ratio of IC50 for inhibition of human Nav1.5 expressed in HEK293 cells by electrophysiology assay to IC50 for inhibition of human Nav1.7 expressed in HEK293 cells by electrophysiology assay; format: cell-based
Homo sapiens [16] = organism: Homo sapiens; assay: Selectivity index, ratio of IC50 for inhibition of human Nav1.6 expressed in HEK293 cells by electrophysiology assay to IC50 for inhibition of human Nav1.7 expressed in HEK293 cells by electrophysiology assay; format: cell-based
Rattus norvegicus [17] = assay: Analgesic activity in it dosed rat model of pain by tail flick test; format: functional
Rattus norvegicus [18] = assay: Analgesic activity in it dosed rat model of pain by hot plate test; format: functional
Rattus norvegicus [19] = assay: Analgesic activity in po dosed rat model of pain by Hargreaves test; format: functional

Question: What does the source list for `CSCC[C@@H]1NC(=O)CNC(=O)[C@H](CCC(=O)O)NC(=O)[C@@H]2CSSC[C@H](NC(=O)[C@@H](N)Cc3ccc(O)cc3)C(=O)N[C@@H](CCC(N)=O)C(=O)N[C@@H](CCCCN)C(=O)N[C@@H](Cc3c[nH]c4ccccc34)C(=O)N[C@@H](CCSC)C(=O)N[C@@H](Cc3c[nH]c4ccccc34)C(=O)N[C@@H]([C@@H](C)O)C(=O)N[C@H]3CSSC[C@H](NC(=O)[C@H](C(C)C)NC1=O)C(=O)N[C@@H](CCCNC(=N)N)C(=O)N[C@@H](CC(C)C)C(=O)N[C@@H](Cc1c[nH]c4ccccc14)C(=O)N[C@H](C(=O)N[C@@H](CCCCN)C(=O)N[C@@H](CCCCN)C(=O)N[C@@H](CCCCN)C(=O)N[C@@H](CC(C)C)C(=O)N[C@@H](Cc1c[nH]c4ccccc14)C(=O)O)CSSC[C@H](NC(=O)[C@H](CCCCN)NC(=O)[C@H](CCCNC(=N)N)NC(=O)[C@H](CCC(=O)O)NC(=O)[C@H](CO)NC(=O)[C@H](CC(=O)O)NC3=O)C(=O)N2`?
Answer: IC50 [1]: 16 nM; IC50 [2]: 79 nM; IC50 [3]: 25 nM; IC50 [4]: 79 nM; IC50 [5]: 400 nM; IC50 [6]: 32 nM; ED (Rattus norvegicus [7]): 0.1 mg/kg; ED (Rattus norvegicus [8]): 0.01 mg/kg; ED (Rattus norvegicus [9]): 2 µg; ED (Rattus norvegicus [10]): 2 µg

Question: With `CSCC[C@@H]1NC(=O)CNC(=O)[C@H](CCC(=O)O)NC(=O)[C@@H]2CSSC[C@H](NC(=O)[C@H](Cc3ccc(O)cc3)NC(=O)[C@H](Cc3ccc(O)cc3)NC(=O)[C@@H]3CCCN3C(=O)CN)C(=O)N[C@@H](CCC(N)=O)C(=O)N[C@@H](CCCCN)C(=O)N[C@@H](Cc3c[nH]c4ccccc34)C(=O)N[C@@H](CCSC)C(=O)N[C@@H](CCC(N)=O)C(=O)N[C@@H]([C@@H](C)O)C(=O)N[C@H]3CSSC[C@H](NC(=O)[C@H](C(C)C)NC1=O)C(=O)N[C@@H](CCCNC(=N)N)C(=O)N[C@@H](CC(C)C)C(=O)N[C@@H](Cc1c[nH]c4ccccc14)C(=O)N[C@H](C(=O)N[C@@H](CCCCN)C(=O)N[C@@H](CCCCN)C(=O)N[C@@H](CCCCN)C(=O)N[C@@H](CC(C)C)C(=O)N[C@@H](CC(C)C)C(=O)O)CSSC[C@H](NC(=O)[C@H](CCCCN)NC(=O)[C@H](CCCNC(=N)N)NC(=O)[C@H](CCC(=O)O)NC(=O)[C@H](CO)NC(=O)[C@H](CC(=O)O)NC3=O)C(=O)N2` as the compound, how does the IC50 [11] read?
Answer: 10 nM

Question: What about the IC50 [1] of the same compound?
Answer: 10000 nM

Question: And the IC50 [2]?
Answer: 1600 nM

Question: What about the IC50 [4] of the same compound?
Answer: 5300 nM

Question: And the IC50 [5]?
Answer: > 10000 nM

Question: And the IC50 [6]?
Answer: 1000 nM

Question: What about the Ratio IC50 (Homo sapiens [12]) of the same compound?
Answer: 1000

Question: And the Ratio IC50 (Homo sapiens [13])?
Answer: 160

Question: And the Ratio IC50 (Homo sapiens [14])?
Answer: 530

Question: What about the Ratio IC50 (Homo sapiens [15]) of the same compound?
Answer: > 1000

Question: What about the Ratio IC50 (Homo sapiens [16]) of the same compound?
Answer: 100

Question: What about the ED (Rattus norvegicus [9]) of the same compound?
Answer: 1 to 5 µg

Question: What about the ED (Rattus norvegicus [17]) of the same compound?
Answer: 0.3 to 7.5 µg

Question: What about the ED (Rattus norvegicus [18]) of the same compound?
Answer: 0.3 to 7.5 µg

Question: What about the ED (Rattus norvegicus [19]) of the same compound?
Answer: 1.4 mg
